# Laboratory results as given in US7229825B2, “Double-transfected cell line useful for the identification of transport inhibitors” (Deutches Krebsforschungszentrum Stiftung des Offentlichen …, priority 2001, dated 2007).
# Like-named read-outs stand apart in the source and are kept apart here.
# B1: human MRP2 (Homo sapiens) (protein)
# chain: MLEKFCNSTFWNSSFLDSPEADLPLCFEQTVLVWIPLGYLWLLAPWQLLHVYKSRTKRSSTTKLYLAKQVFVGFLLILAAIELALVLTEDSGQATVPAVRYTNPSLYLGTWLLVLLIQYSRQWCVQKNSWFLSLFWILSILCGTFQFQTLIRTLLQGDNSNLAYSCLFFISYGFQILILIFSAFSENNESSNNPSSIASFLSSITYSWYDSIILKGYKRPLTLEDVWEVDEEMKTKTLVSKFETHMKRELQKARRALQRRQEKSSQQNSGARLPGLNKNQSQSQDALVLEDVEKKKKKSGTKKDVPKSWLMKALFKTFYMVLLKSFLLKLVNDIFTFVSPQLLKLLISFASDRDTYLWIGYLCAILLFTAALIQSFCLQCYFQLCFKLGVKVRTAIMASVYKKALTLSNLARKEYTVGETVNLMSVDAQKLMDVTNFMHMLWSSVLQIVLSIFFLWRELGPSVLAGVGVMVLVIPINAILSTKSKTIQVKNMKNKDKRLKIMNEILSGIKILKYFAWEPSFRDQVQNLRKKELKNLLAFSQLQCVVIFVFQLTPVLVSVVTFSVYVLVDSNNILDAQKAFTSITLFNILRFPLSMLPMMISSMLQASVSTERLEKYLGGDDLDTSAIRHDCNFDKAMQFSEASFTWEHDSEATVRDVNLDIMAGQLVAVIGPVGSGKSSLISAMLGEMENVHGHITIKGTTAYVPQQSWIQNGTIKDNILFGTEFNEKRYQQVLEACALLPDLEMLPGGDLAEIGEKGINLSGGQKQRISLARATYQNLDIYLLDDPLSAVDAHVGKHIFNKVLGPNGLLKGKTRLLVTHSMHFLPQVDEIVVLGNGTIVEKGSYSALLAKKGEFAKNLKTFLRHTGPEEEATVHDGSEEEDDDYGLISSVEEIPEDAASITMRRENSFRRTLSRSSRSNGRHLKSLRNSLKTRNVNSLKEDEELVKGQKLIKKEFIETGKVKFSIYLEYLQAIGLFSIFFIILAFVMNSVAFIGSNLWLSAWTSDSKIFNSTDYPASQRDMRVGVYGALGLAQGIFVFIAHFWSAFGFVHASNILHKQLLNNILRAPMRFFDTTPTGRIVNRFAGDISTVDDTLPQSLRSWITCFLGIISTLVMICMATPVFTIIVIPLGIIYVSVQMFYVSTSRQLRRLDSVTRSPIYSHFSETVSGLPVIRAFEHQQRFLKHNEVRIDTNQKCVFSWITSNRWLAIRLELVGNLTVFFSALMMVIYRDTLSGDTVGFVLSNALNITQTLNWLVRMTSEIETNIVAVERITEYTKVENEAPWVTDKRPPPDWPSKGKIQFNNYQVRYRPELDLVLRGITCDIGSMEKIGVVGRTGAGKSSLTNCLFRILEAAGGQIIIDGVDIASIGLHDLREKLTIIPQDPILFSGSLRMNLDPFNNYSDEEIWKALELAHLKSFVASLQLGLSHEVTEAGGNLSIGQRQLLCLGRALLRKSKILVLDEATAAVDLETDNLIQTTIQNEFAHCTVITIAHRLHTIMDSDKVMVLDNGKIIECGSPEELLQIPGPFYFMAKEAGIENVNSTKF
# notes: expressed in transfected cells
# How the values were obtained:
# [1] = test system: human OATP8 and MRP2 (MDCK-MRP2/OATP8 cells); experiment: Inhibition of transcellular [3H]BSP transport in MDCK-MRP2/OATP8 cells; assay type: cell-based; conditions: 1 μM [3H]BSP, 30 min, 37° C.
# Method: (§1) For transport assays MDCKII cells were grown on Transwell membrane inserts (24 mm diameter, 0.4 μm pore size, Corning Costar) at confluency for 3 days and induced with 10 mM sodium butyrate for 24 h. Cells were first washed with transport buffer (142 mM NaCl, 5 mM KCl, 1 mM KH2PO4, 1.2 mM MgSO4, 1.5 mM CaCl2, 5 mM glucose, and 12.5 mM HEPES, pH 7.3), subsequently, ^3H-labeled substrates were added in transport buffer either to the apical compartments (1 ml) or to the basolateral compartments (1.5 ml). After the time periods indicated, the radioactivity in the opposite compartments was measured. The intracellular accumulation of the radioactivity was determined by lysing the cells with 2 ml 0.2% SDS in water and measuring the radioactivity in cell lysates.
# (§2) For inhibition studies the inhibitors were added simultaneously with [^3H]BSP into the basolateral compartments, with the exception of 1-chloro-2,4-dinitrobenzene (CDNB). In this case, MDCKII cells grown on Transwell membrane inserts were pre-incubated with CDNB in transport puffer in both apical and basolateral compartments for 20 min at room temperature. The transcellular transport was then started by replacing the buffer in the basolateral compartments by fresh buffer containing CDNB and [^3H]BSP.
# [2] = target: T1, human OATP8 (MDCK-OATP8 cells) (Homo sapiens, UniProt Q9NPD5); experiment: Inhibition of [3H]BSP accumulation and transport in MDCK-OATP8 cells; conditions: pre-incubation 20 min at room temperature, up to a concentration of 50 μM
# T1 sequence (Q9NPD5 1-702): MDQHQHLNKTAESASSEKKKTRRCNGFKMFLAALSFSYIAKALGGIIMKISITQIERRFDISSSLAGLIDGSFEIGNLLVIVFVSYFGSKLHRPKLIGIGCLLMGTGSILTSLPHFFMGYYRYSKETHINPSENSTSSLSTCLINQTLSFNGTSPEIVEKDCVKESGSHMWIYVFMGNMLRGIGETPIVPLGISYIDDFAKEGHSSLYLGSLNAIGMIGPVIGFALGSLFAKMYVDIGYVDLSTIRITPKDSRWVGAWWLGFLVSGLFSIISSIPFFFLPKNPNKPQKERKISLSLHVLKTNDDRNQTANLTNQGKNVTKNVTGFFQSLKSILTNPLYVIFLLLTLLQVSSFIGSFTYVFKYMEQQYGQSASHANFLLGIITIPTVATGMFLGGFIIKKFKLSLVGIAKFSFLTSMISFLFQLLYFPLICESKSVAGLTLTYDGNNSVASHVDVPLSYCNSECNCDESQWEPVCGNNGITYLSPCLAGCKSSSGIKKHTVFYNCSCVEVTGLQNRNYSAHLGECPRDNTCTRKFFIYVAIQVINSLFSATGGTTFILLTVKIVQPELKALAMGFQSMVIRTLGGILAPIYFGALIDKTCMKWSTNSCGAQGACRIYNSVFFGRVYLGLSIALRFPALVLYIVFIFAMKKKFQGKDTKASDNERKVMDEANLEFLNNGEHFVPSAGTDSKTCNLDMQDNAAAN
# Method: as §1, §2
# [3] = test system: human OATP8 and MRP2 (MDCK-MRP2/OATP8 cells); experiment: Transcellular transport of organic anions across MDCK-MRP2/OATP8 cells on Transwell membrane inserts; conditions: substrate in basolateral compartment, 37° C., apical compartment measured; MDCK-MRP2/OATP8 compared with MDCK-OATP8, MDCK-Co (and MDCK-MRP2) cells
# Method: (§3) For transport assays MDCKII cells were grown on Transwell membrane inserts (24 mm diameter, 0.4 μm pore size, Corning Costar) at confluency for 3 days and induced with 10 mM sodium butyrate for 24 h. […] After the time periods indicated, the radioactivity in the opposite compartments was measured. The intracellular accumulation of the radioactivity was determined by lysing the cells with 2 ml 0.2% SDS in water and measuring the radioactivity in cell lysates.
# (§4) To study the transcellular transport of Fluo-3, cells were incubated with 2 μM Fluo-3 in the basolateral compartments at 37° C. for 30 min.
# (§5) To study the transcellular transport of rifampicin, cells were incubated with 50 μM rifampicin in the basolateral compartments at 37° C. for 30 min. To determine the concentration of rifampicin in the apical compartments its absorption at 475 nm was measured with a spectrophotometer (Ultrospec III, Amersham-Pharmacia, Freiburg, Germany). A calibration curve for the calculation of the concentrations of rifampicin was determined in the concentration range between 1 and 50 μM.
# [4] = test system: human OATP8 and MRP2 (MDCK-MRP2/OATP8 cells)
# Method: as §3, §4, §5
# human MRP2 = human MRP2 (Homo sapiens, UniProt Q92887); experiment: Inhibition of [3H]LTC4 transport into HEK-MRP2 membrane vesicles; assay type: biochemical; conditions: inhibitor at 50 μM
# MDCKII cell lines = experiment: Transcellular leakage of [14C]inulin carboxylic acid across MDCKII cell monolayers; assay type: cell-based, canine; conditions: 50 μM basolateral, 30 min, all four MDCKII cell lines
# Method: The transcellular leakage was determined by incubating cells with 50 μM [^14C]inulin carboxylic acid in the basolateral compartments for 30 min and measuring the radioactivity in the apical compartments. For all four MDCKII cell lines used in this work the transcellular leakage was lower than 1%.
# [5] = substrate: O=C1OC(c2ccc(O)c(S(=O)(=O)O)c2)(c2ccc(O)c(S(=O)(=O)O)c2)c2c(Br)c(Br)c(Br)c(Br)c21; experiment: ATP-dependent transport of [3H]BSP into inside-out membrane vesicles from HEK-MRP2 cells; assay type: biochemical, human; conditions: other: BSP concentrations between 1 and 10 μM; pH 7.4; 37.0 °C
# Method: Vesicle Transport Studies. Transport of [^3H]BSP into membrane vesicles was measured by the rapid filtration method (Keppler et al. 1998). Briefly, membrane vesicles (30 μg protein) were incubated in the presence of 4 mM ATP, 10 mM creatine phosphate, 100 μg/ml creatine kinase, and [^3H]BSP in an incubation buffer (250 mM sucrose, 10 mM Tris/HCl, pH 7.4) in a final volume of 55 μl at 37° C. Aliquots (15 μl) were taken at the indicated time points, diluted in 1 ml ice-cold incubation buffer, and immediately filtered through presoaked nitrocellulose membrane (0.2 μm pore size, Schleicher & Schüll, Dassel, Germany). Filters were rinsed twice with 5 ml of incubation buffer, dissolved in liquid scintillation fluid, and counted for radioactivity. In control experiments, ATP was replaced by an equal concentration of 5′-AMP. ATP-dependent transport was calculated by subtracting values obtained in the presence of 5′-AMP from those obtained in the presence of ATP.
molecule,measurement,setting,value
"O=[N+]([O-])c1ccc(Cl)c([N+](=O)[O-])c1 [CDNB, 1-chloro-2,4-dinitrobenzene]",effect on intracellular accumulation of [3H]BSP in MDCK-MRP2/OATP8 cells,[1]; different concentrations,enhanced
same,effect on transcellular transport of [3H]BSP in MDCK-MRP2/OATP8 cells,[1]; different concentrations,markedly inhibited
same,effect on intracellular accumulation of [3H]BSP in MDCK-OATP8 cells,[2],not inhibited
same,effect on transcellular transport of [3H]BSP in MDCK-OATP8 cells,[2],not inhibited
"C[C@]12CC[C@@H]3c4ccc(O)cc4CC[C@H]3[C@@H]1CC[C@@H]2O[C@@H]1O[C@H](C(=O)O)[C@@H](O)[C@H](O)[C@H]1O [E217bG, 17b-glucuronosyl estradiol]",transcellular transport (basolateral to apical),[3],much higher velocities
"Cc1ccc(N(CC(=O)O)CC(=O)O)c(OCCOc2cc(-c3c4cc(Cl)c(=O)cc-4oc4cc(O)c(Cl)cc34)ccc2N(CC(=O)O)CC(=O)O)c1.N.N.N.N.N [Fluo-3, 1-[2-amino-5-(2,7-dichloro-6-hydroxy-3-oxo-3H-xanthen-9-yl)]-2-(2′-amino-5′-methyl-phenoxyl)-ethane-N,N,N′,N′-tetraacetic acid penta-ammonium salt]",transcellular transport (basolateral to apical),[4],higher transport rate
"CCCCC/C=C\C\C=C/C=C/C=C/[C@@H](SC[C@H](NC(=O)CC[C@H](N)C(=O)O)C(=O)NCC(=O)O)[C@@H](O)CCCC(=O)O [LTC4, leukotriene C4]",transcellular transport (basolateral to apical),[4],much higher velocities
"C[C@H](CCC(=O)NCCS(=O)(=O)O)[C@H]1CC[C@H]2[C@@H]3[C@H](O)C[C@@H]4C[C@H](O)CC[C@]4(C)[C@H]3C[C@H](O)[C@]12C [[^3H]cholyl taurine, cholyl taurine]",transcellular transport (basolateral to apical),[3],no difference in transport rates
CO[C@H]1/C=C/O[C@@]2(C)Oc3c(C)c(O)c4c(O)c(c(/C=N/N5CCN(C)CC5)c(O)c4c3C2=O)NC(=O)/C(C)=C\C=C\[C@H](C)[C@H](O)[C@@H](C)[C@@H](O)[C@@H](C)[C@H](OC(C)=O)[C@@H]1C [rifampicin],intracellular accumulation of [3H]BSP in MDCK-MRP2/OATP8 cells,[1],about 50 % of control
same,[3H]LTC4 transport into HEK-MRP2 membrane vesicles,human MRP2,50 % of control
same,transcellular transport (basolateral to apical),[3],significantly higher transcellular transport
CO[C@H]1/C=C/O[C@@]2(C)Oc3c(C)c([O-])c4c(O)c(cc(O)c4c3C2=O)NC(=O)/C(C)=C\C=C\[C@H](C)[C@H](O)[C@@H](C)[C@@H](O)[C@@H](C)[C@H](OC(C)=O)[C@@H]1C.[Na+] [rifamycin SV],intracellular accumulation of [3H]BSP in MDCK-MRP2/OATP8 cells,[1],about 50 % of control
same,effect on transcellular transport of [3H]BSP in MDCK-MRP2/OATP8 cells,[1]; different concentrations,inhibited more strongly
same,[3H]LTC4 transport into HEK-MRP2 membrane vesicles,human MRP2,38 % of control
Inulin carboxylic acid [[^14C]Inulin carboxylic acid],transcellular leakage,MDCKII cell lines,lower than 1%
B1,Km,[5],12 µM
